Assay results: patent US7109338B2, “1,2-disubstituted 1,4-dihydro-4-oxoquinoline compounds” (priority 1999, dated 2006)
In brackets after ≈: the same amount, converted by molar mass.

Assays:
[1] = system: Poliovirus type 1 (Polio 1, Sabin); assay: microbe, parasite or virus in culture; type: cell-based; conditions: Enterovirus C, HeLa S3, read-out: IC50 Polio 1
[2] = system: echovirus type 11 (Echo 11, Gregory); assay: In vitro anti-picornavirus activity (MTT), Echo 11; type: cell-based; conditions: Enterovirus B; HeLa-S3 cells, MTT method, 37° C.
[3] = system: coxsackievirus type A7 (CA7); assay: In vitro anti-picornavirus activity (MTT), CA7; type: cell-based; conditions: Coxsackievirus; HeLa-S3 cells, MTT method, 37° C.
[4] = system: coxsackievirus type B4 (CB4,JVB); assay: In vitro anti-picornavirus activity (MTT), CB4; type: cell-based; conditions: Coxsackievirus; HeLa cells, MTT method, 37° C.
[5] = system: human rhinovirus type 1B (HRV 1B, B632); assay: Anti-rhinovirus activity (MTT), HRV1B; type: cell-based; conditions: Human rhinovirus sp., HRV1B; HeLa (Ohio strain) cells, MTT method, 33° C.; read-out: IC50 HRV1B
[6] = system: HRV 2 (HGP); assay: Anti-rhinovirus activity (MTT), HRV2; type: cell-based, human rhinovirus; conditions: Human rhinovirus sp., HRV2; HeLa (Ohio strain) cells, MTT method, 33° C.; read-out: IC50 HRV2
[7] = system: HRV 89 (41617-Gallo); assay: Anti-rhinovirus activity (MTT), HRV89; type: cell-based, human rhinovirus; conditions: Human rhinovirus sp., HRV89; HeLa (Ohio strain) cells, MTT method, 33° C.; read-out: IC50 HRV89
[8] = Cytotoxicity (MTT, without virus), HeLa; conditions: human, HeLa cells (uninfected)
[9] = Cytotoxicity (MTT, without virus), HeLa-S3; conditions: human, HeLa-S3 cells (uninfected)
[10] = Cytotoxicity (MTT, without virus), HeLa(Ohio); conditions: human, HeLa (Ohio strain) cells (uninfected)
[11] = system: HRV1A (E28); assay: Anti-rhinovirus activity (MTT), HRV1A; type: cell-based, human rhinovirus; conditions: Human rhinovirus sp., HRV1A, HeLa, read-out: IC50 HRV 1A
[12] = system: HRV14 (1059); assay: Anti-rhinovirus activity (MTT), HRV14; type: cell-based, human rhinovirus; conditions: Human rhinovirus sp., HRV14; HeLa (Ohio strain) cells, MTT method, 33° C.; read-out: IC50 HRV 14

| SMILES | IC50 [1] | IC50 [2] | IC50 [3] | IC50 [4] | IC50 [5] | IC50 [6] | IC50 [7] | melting point | CC50 at 4 days [8] | CC50 at 4 days [9] | CC50 at 4 days [10] | IC50 [11] | IC50 [12] |
| --- | --- | --- | --- | --- | --- | --- | --- | --- | --- | --- | --- | --- | --- |
| CCn1c(-c2ccccc2)c(C)c(=O)c2cc(C(C)C)ccc21 [Compound A37, 1-Ethyl-2-phenyl-3-methyl-6-isopropyl-1,4-dihydro-4-oxoquinoline] | 1.1 µg/mL (≈ 3.6 µM) | 0.91 µg/mL (≈ 2.98 µM) | 3.8 µg/mL (≈ 12.4 µM) | 6.7 µg/mL (≈ 21.9 µM) | 1 µg/mL (≈ 3.27 µM) | 0.83 µg/mL (≈ 2.72 µM) | 0.54 µg/mL (≈ 1.77 µM) | 159 to 165 °C | 11 µg/mL (≈ 36 µM) | 12 µg/mL (≈ 39.3 µM) | 11 µg/mL (≈ 36 µM) |  |  |
| CCn1c(-c2ccc(OC)c(C)c2)c(C)c(=O)c2c(C)c(OCC(C)C)ccc21 [Compound A191, 1-Ethyl-2-(3-methyl-4-methoxyphenyl)-3,5-dimethyl-6-isobutoxy-1,4-dihydro-4-oxoquinoline] | 0.4 µg/mL (≈ 1.02 µM) | 0.19 µg/mL (≈ 0.483 µM) | 2.5 µg/mL (≈ 6.35 µM) | 1.6 µg/mL (≈ 4.07 µM) | 1.3 µg/mL (≈ 3.3 µM) | 0.15 µg/mL (≈ 0.381 µM) | 0.2 µg/mL (≈ 0.508 µM) | 149 °C | > 4 µg/mL | > 4 µg/mL | > 4 µg/mL |  |  |
| CCn1c(-c2ccco2)cc(=O)c2cc(C(C)C)ccc21 [Compound A304, 1-Ethyl-2-(2-furyl)-6-isopropyl-1,4-dihydro-4-oxoquinoline] | 0.8 µg/mL (≈ 2.84 µM) | 0.35 µg/mL (≈ 1.24 µM) | 3.6 µg/mL (≈ 12.8 µM) | 1.9 µg/mL (≈ 6.75 µM) | 0.76 µg/mL (≈ 2.7 µM) | 0.34 µg/mL (≈ 1.21 µM) | 0.9 µg/mL (≈ 3.2 µM) | 70 to 73 °C | 18 µg/mL (≈ 64 µM) | > 20 µg/mL | 19 µg/mL (≈ 67.5 µM) |  |  |
| Cc1c(-c2ccccc2)n(-c2ccc(Cl)cc2)c2ccc(C(C)C)cc2c1=O [Compound A324, 1-(4-chlorophenyl)-2-phenyl-3-methyl-6-isopropyl-1,4-dihydro-4-oxoquinoline] |  |  |  |  | 0.53 µg/mL (≈ 1.37 µM) | 0.12 µg/mL (≈ 0.309 µM) | 0.046 µg/mL (≈ 0.119 µM) | 233 to 235 °C |  |  | > 1 µg/mL |  |  |
| CCn1c2c(c(=O)c3cc(C(C)C)ccc31)Cc1ccccc1-2 [Compound B2, 5-Ethyl-8-isopropyl-5,10-dihydro-11H-indeno[1,2-b]quinolin-10-one] | 0.58 µg/mL (≈ 1.91 µM) | 0.19 µg/mL (≈ 0.626 µM) | 3.1 µg/mL (≈ 10.2 µM) | 0.97 µg/mL (≈ 3.2 µM) | 0.54 µg/mL (≈ 1.78 µM) | 0.15 µg/mL (≈ 0.494 µM) | 0.48 µg/mL (≈ 1.58 µM) |  | > 10 µg/mL | > 10 µg/mL | > 10 µg/mL | 5 µg/mL (≈ 16.5 µM) | 0.65 µg/mL (≈ 2.14 µM) |
